In the experiment the test system is murine fibroblasts (NIH3T3) over-expressing human IGF-1 receptor. The experiment in a line: Inhibition of IGF-stimulated cell proliferation (BrdU incorporation), Test (c). It counts as cell-based. To be noted: inhibition of IGF-stimulated proliferation in NIH3T3 over-expressing human IGF-1 receptor. The method, then:
The construction of murine fibroblasts (NIH3T3) over-expressing human IGF-1 receptor has been described by Lammers et al (EMBO J, 8, 1369-1375, 1989). These cells show a proliferative response to IGF-I which can be measured by BrdU incorporation into newly synthesised DNA. Compound potency was determined as causing inhibition of the IGF-stimulated proliferation in the following assay:
Cell Proliferation ELISA, BrdU (calorimetric) [Boehringer Mannheim (Diagnostics and Biochemicals) Ltd, UK. Cat no. 1 647 229].
DMEM, FCS, Glutamine, HBSS (all from Life Technologies Ltd., UK).
Human recombinant IGF-1 Animal/media grade (GroPep Limited ABN 78 008 176 298, Australia. Cat No. IU 100).
100 μg of lyophilised IGF was reconstituted in 100 ul of 10 mM HCl. Add 400 μl of 1 mg/ml BSA in PBS 25 μl aliquots @ 200 μg/ml IGF-1
10 μl of stock IGF+12.5 ml growth medium to give 8× stock of 160 ng/ml.
DMEM, 10% FCS, 2 mM glutamine.
DMEM, 1% charcoal/dextran stripped FCS, 2 mM glutamine.
Compounds are initially dissolved in DMSO to 10 mM, followed by dilutions in DMEM+1% FCS+glutamine to give a range from […] in 1-0.00045% DMSO final concentration in assay well. […]
The incorporation of BrdU in the cells (after a 4 h incorporation period) was assessed using the BrdU Cell Proliferation Elisa according to the manufacturer's protocol. […]

Each structure is given as a SMILES string.

The term IC50 denotes the concentration at which inhibition is half-maximal. On to `Cc1cc(Nc2nccs2)nc(N2CCC[C@H]2c2cc(-c3ccccn3)no2)n1` [Example 1, S-6-Methyl-4-(2-thiazolylamino)-2-{2-[3-(pyrid-2-yl)isoxazol-5-yl]pyrrolidin-1-yl}pyrimidine], for which the IC50 was 0.17 µM.

`Cc1cc(Nc2ncc[nH]2)nc(N2CCC[C@H]2c2cc(-c3ccccn3)no2)n1` [Example 23, S-6-Methyl-4-(imidazol-2-ylamino)-2-{2-[3-(pyridin-2-yl)isoxazol-5-yl]pyrrolidin-1-yl}pyrimidine]: 0.45 µM corresponded to half-maximal inhibition (IC50).

The values above are taken from US20090306116A1, “PYRIMIDINE DERIVATIVES FOR THE INHIBITION OF IGF-IR TYROSINE KINASE ACTIVITY” (AstraZeneca AB, priority 2005, published 2009).
